In patent US11066381B2, “Urolithins-containing aqueous solution, dried solid composition thereof and production method therefor, and urolithins stabilizing method” (DAICEL CORPORATION, priority 2016, dated 2021):

Test: Stability improvement test for urolithin (residual ratio by HPLC after storage at 60° C.)
Type: physicochemical
Conditions: for Urolithin A residual ratio (%) (60° C.) 1 week later / Urolithin A residual ratio (%) (60° C.) 2 weeks later: aqueous solution with 10% ethanol, 10% glycerin, 0.005% urolithin A; for Urolithin A residual ratio (%) (60° C.) 1 week later: stored at 60° C. for 1 week; for Urolithin A residual ratio (%) (60° C.) 2 weeks later: stored at 60° C. for 2 weeks
Procedure: The stability of urolithin can be studied by measuring the total amount of urolithin before storage and the total amount of urolithin after storage under a temperature condition of 60° C. for one week or two weeks, and then calculating the urolithin residual ratio (%) according to the following calculation equation. As the method for measuring urolithin, for example, the method using HPLC described in Examples can be used. Urolithin residual ratio (%)=(total amount of urolithin after storage/total amount of urolithin before storage)×100 [Calculation Equation]
A description is given below for a case where urolithin A was used as the urolithin. Analysis of urolithin A was carried out using HPLC. More specifically, urolithin A (manufactured by Dalton Farma) was dissolved in an appropriate solvent to prepare a solution, and the solution was analyzed under the following HPLC conditions. Using the purity (%) (A) and the peak area value (B) in the HPLC, the factor of urolithin A and the urolithin A concentration in the sample were calculated according to the following calculation equation (1) and calculation equation (2). (Calculation Equation for Factor of Urolithin A) Factor of urolithin A=(B)/(concentration of standard solution of urolithin A (mg/L)×(A)/100) (1) (Calculation Equation for Urolithin A Concentration in Sample) Urolithin A concentration in sample (mg/L)=peak area value of urolithin A in sample/factor of urolithin A (2)
To an aqueous solution containing 10% ethanol and 10% glycerin, urolithin A was added to a concentration of 0.005%, and then the urolithin A was dissolved therein. To this solution, collagen (Hanamai) was added to a concentration of 0.5% to prepare a urolithin A-containing aqueous solution. The urolithin A content in the urolithin A-containing aqueous solution was measured after one week of storage and after two weeks of storage under a temperature condition of 60° C. By comparing the urolithin A contents measured before and after the storage, the residual ratio was calculated to evaluate the stability.
The same operation as in Example 1 was carried out except that collagen was not added, to provide a control as Comparative Example 1.
The residual ratio of urolithin A was calculated according to the following calculation equation (3). Urolithin residual ratio (%)=(content of urolithin A after storage/content of urolithin A before storage)×100 (3)

[1] = collagen 0% (Comparative Example 1)

- Urolithin A residual ratio (%) (60° C.) 1 week later [1]: 66.9%
- Urolithin A residual ratio (%) (60° C.) 2 weeks later [1]: 45.0%
- Urolithin A residual ratio (%) (60° C.) 1 week later (collagen 0.5% (Example 1)): 92.4%
- Urolithin A residual ratio (%) (60° C.) 2 weeks later (collagen 0.5% (Example 1)): 92.2%
- stability of urolithin A (in the presence of collagen versus without collagen, storage at 60° C.): increases in the presence of collagen
SMILES: O=c1oc2cc(O)ccc2c2ccc(O)cc12 [Urolithin A, urolithin A]
